Data on 44 compounds can be found in ChEMBL document CHEMBL2057151, “Synthesis and structure-activity relationships of pyrido[3,2-b]pyrazin-3(4H)-ones and pteridin-7(8H)-ones as corticotropin-releasing factor-1 receptor antagonists” (Bioorg Med Chem Lett, 2012).

Series [1] deals with T1, Corticotropin-releasing factor receptor 1 (Rattus norvegicus, UniProt P35353).
T1 sequence (P35353 whole entry): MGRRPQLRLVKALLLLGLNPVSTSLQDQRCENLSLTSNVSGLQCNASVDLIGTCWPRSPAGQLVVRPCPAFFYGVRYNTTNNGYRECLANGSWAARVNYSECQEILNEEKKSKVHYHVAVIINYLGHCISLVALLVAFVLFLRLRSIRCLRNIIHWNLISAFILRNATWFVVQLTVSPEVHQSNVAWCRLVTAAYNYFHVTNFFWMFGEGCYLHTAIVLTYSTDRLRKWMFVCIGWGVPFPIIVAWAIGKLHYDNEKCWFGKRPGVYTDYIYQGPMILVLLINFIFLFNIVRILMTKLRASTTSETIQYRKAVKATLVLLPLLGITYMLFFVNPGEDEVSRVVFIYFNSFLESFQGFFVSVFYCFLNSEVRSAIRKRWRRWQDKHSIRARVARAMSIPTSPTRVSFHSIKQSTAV
The experiment in a line: Antagonist activity at rat CFR1R. Type of series: functional.

Series [2] can be described thus: Fraction unbound in rat plasma. Type of series: ADME, cell-free.
Series [3] in a line: Clearance in rat at 0.5 mg/kg, iv and 1.5 mg/kg, po. As to conditions: in vivo. Type of series: ADME, organism-based.
Series [4] in a line: Volume of distribution at steady state in rat at 0.5 mg/kg, iv and 1.5 mg/kg, po. The format is ADME, organism-based. The settings on record: in vivo, read-out: Vdss.
In a further series the test system is Rattus norvegicus. Kind of series: AUC in rat at 1.5 mg/kg, po. Type of series: ADME, organism-based, Plasma. Also on record: dose 1.5 mg/kg, route oral. As to conditions: in vivo.
The nature of series [5]: Half life in rat at 0.5 mg/kg, iv. Type of series: ADME, organism-based. Also on record: dose 0.5 mg/kg, route intravenous. As to conditions: in vivo.

Broadly, the IC50 is the concentration that gives 50% inhibition. Read a high IC50 as lower potency. Broadly, the fraction unbound is free concentration divided by total concentration. Low values mean little free substance, high ones much free substance. In series [1], `COc1ccc(-c2ncnc3c2nc(C)c(=O)n3C(C2CC2)C2CC2)c(C)c1` returned a concentration for half-maximal inhibition (IC50) of 37 nM. Moreover, in series [2], the free fraction (fraction unbound) turned out to be 0.014.

In series [1], `CCC(COC)n1c(=O)c(C)nc2c(-c3cc(F)c(OC)cc3Cl)ncnc21` (stereo not given) registered an IC50 of 16 nM. The free fraction (fraction unbound) in series [2] was 0.014.

As usually defined, the AUC is concentration integrated over time. A higher AUC goes with high exposure. The half-life is the time needed for the level to fall by half in the phase considered. Compound `COCC(C1CC1)n1c(=O)c(C)nc2c(-c3cc(F)c(OC)cc3Cl)ncnc21` (stereo not given) had an IC50 in series [1] of 7.5 nM. In series [2], this compound came in with a fraction unbound of 0.028. Further, the clearance in series [3] is 33.7 mL/min/kg. For the same compound, the Vd in series [4] stood at 2.05 L/kg. Further, the exposure (AUC) with Rattus norvegicus worked out at 0.3 µM·h. In series [5], this compound gave a half-life of 2 h.

`CC[C@@H](C1CC1)n1c(=O)c(C)nc2c(-c3ccc(Cl)cc3Cl)nccc21`: the 50% inhibitory concentration (IC50) in series [1] amounted to 55 nM.

`CC[C@H](COC)n1c(=O)c(C)nc2c(-c3ccc(Cl)cc3Cl)nccc21` returned a half-inhibitory concentration (IC50) in series [1] of 150 nM.

In series [1], `COc1ccc(-c2ccnc3c2nc(C)c(=O)n3C(C2CC2)C2CC2)c(C)c1` registered an IC50 of 3 nM. Besides, in series [2], the fraction unbound worked out at 0.03.

`CCC(COC)n1c(=O)c(C)nc2c(-c3cc(F)c(OC)cc3Cl)ccnc21` (stereo not given) gave an IC50 in series [1] of 2.1 nM. This compound also yielded a fraction unbound in series [2] of 0.03.

`COCC(C1CC1)n1c(=O)c(C)nc2c(-c3cc(F)c(OC)cc3Cl)ccnc21` (stereo not given) registered an IC50 in series [1] of 1.5 nM. The compound further gave a fraction unbound in series [2] of less than 0.002.

The compound `CCC(COC)n1c(=O)c(C)nc2c(-c3cc(Cl)c(OC)cc3C)ccnc21` (stereo not given) gave a clearance in series [3] of 9.5 mL/min/kg. Moreover, the Vd in series [4] was found to be 1.8 L/kg. The compound also returned an AUC in the series with Rattus norvegicus of 8.5 µM·h. In series [5], the half-life was 5.8 h.

For `Cc1nc2c(-c3ccc(Cl)cc3Cl)ccnc2n(CC(C)C)c1=O`, in series [1], the half-inhibitory concentration (IC50) amounted to 3500 nM.

`Cc1nc2c(-c3ccc(Cl)cc3Cl)ccnc2n(C(C)C(C)C)c1=O` (stereo not given) returned an IC50 in series [1] of 380 nM.

`CCCC(C)n1c(=O)c(C)nc2c(-c3ccc(Cl)cc3Cl)ccnc21` (stereo not given) returned an IC50 in series [1] of 62 nM.

Consider `CC[C@H](C1CC1)n1c(=O)c(C)nc2c(-c3ccc(Cl)cc3Cl)ccnc21`, for which the IC50 in series [1] was found to be 8.2 nM.

In series [1], `CC[C@@H](C1CC1)n1c(=O)c(C)nc2c(-c3ccc(Cl)cc3Cl)ccnc21` yielded an IC50 of 7.4 nM. Also, in series [2], the free fraction (fraction unbound) stood at 0.002.

With `CCCC(C1CC1)n1c(=O)c(C)nc2c(-c3ccc(Cl)cc3Cl)ccnc21` (stereo not given), inhibition in series [1] was half-maximal at 4.3 nM (IC50).

Compound `COCC(C)n1c(=O)c(C)nc2c(-c3ccc(Cl)cc3Cl)ccnc21` (stereo not given) displayed a 50% inhibitory concentration (IC50) in series [1] of 63 nM.

Consider `CC[C@H](COC)n1c(=O)c(C)nc2c(-c3ccc(Cl)cc3Cl)ccnc21`, for which half-maximal inhibition in series [1] (IC50) required 4 nM. In addition, the fraction unbound in series [2] is 0.004.

`CC[C@@H](COC)n1c(=O)c(C)nc2c(-c3ccc(Cl)cc3Cl)ccnc21`: the IC50 in series [1] stood at 74 nM.

The compound `CC[C@@H](C1CC1)n1c(=O)c(C)nc2c(-c3ccc(C(F)(F)F)cc3Cl)ccnc21` had a half-inhibitory concentration (IC50) in series [1] of 21 nM.

The compound `CC[C@@H](C1CC1)n1c(=O)c(C)nc2c(-c3ccc(OC(F)F)cc3Cl)ccnc21` showed an IC50 in series [1] of 7.3 nM.

In series [1], `CC[C@@H](C1CC1)n1c(=O)c(C)nc2c(-c3ccc(OC)cc3Cl)ccnc21` showed an IC50 of 4 nM.

Take `CC[C@H](C1CC1)n1c(=O)c(C)nc2c(-c3ccc(OC)cc3Cl)ccnc21`: half-maximal inhibition in series [1] (IC50) required 4.5 nM.

In turn, `CC[C@H](C1CC1)n1c(=O)c(C)nc2c(-c3cc(Cl)c(OC)cc3C)ccnc21` yielded an IC50 in series [1] of 4.5 nM.

`CC[C@H](C1CC1)n1c(=O)c(C)nc2c(-c3cc(F)c(OC)cc3Cl)ccnc21` displayed an IC50 in series [1] of 1.7 nM.

`CC[C@H](C1CC1)n1c(=O)c(C)nc2c(-c3cc(F)c(OC)cc3C)ccnc21` displayed an IC50 in series [1] of 9.4 nM.

In series [1], `CCC(C1CC1)n1c(=O)c(C)nc2c(-c3cc(C#N)c(C)cc3Cl)ccnc21` (stereo not given) showed an IC50 of 4.8 nM.

As for `CC[C@H](C1CC1)n1c(=O)c(C)nc2c(-c3ccc(OC)cc3C)ccnc21`, the IC50 in series [1] is 11 nM.

Regarding `CC[C@H](C1CC1)n1c(=O)c(C)nc2c(-c3ccc(OC)nc3C)ccnc21`, it took 76 nM to reach half-maximal inhibition in series [1] (IC50).

In turn, `CC[C@H](C1CC1)n1c(=O)c(C)nc2c(-c3cc(C)c(OC)cc3C)ccnc21` displayed an IC50 in series [1] of 130 nM.

`CC[C@H](C1CC1)n1c(=O)c(C)nc2c(-c3cc(C)c(OC)nc3C)ccnc21` had an IC50 in series [1] of 15 nM.

Take `CC[C@@H](C1CC1)n1c(=O)c(C)nc2c(-c3ccc(Cl)cc3Cl)ncnc21`: inhibition in series [1] was half-maximal at 24 nM (IC50). This compound showed a fraction unbound in series [2] of 0.004.

`CC[C@H](COC)n1c(=O)c(C)nc2c(-c3ccc(Cl)cc3Cl)ncnc21` registered an IC50 in series [1] of 97 nM. Moreover, the fraction unbound in series [2] stood at 0.022.

The compound `CCC(C1CC1)n1c(=O)c(C)nc2c(-c3cc(Cl)c(OC(F)F)cc3C)ncnc21` (stereo not given) gave an IC50 in series [1] of 38 nM. This compound also registered a fraction unbound in series [2] of 0.004.

On to `CCC(C1CC1)n1c(=O)c(C)nc2c(-c3ccc(C)cc3C)ccnc21` (racemic), for which, in series [1], half-maximal inhibition (IC50) was put at 8.8 nM.

Compound `CCC(C1CC1)n1c(=O)c(C)nc2c(-c3cc(C)c(C)cc3C)ccnc21` (racemic) displayed an IC50 in series [1] of 5.2 nM.

Turning to `CCC(C1CC1)n1c(=O)c(C)nc2c(-c3cc(C)c(C)c(C)c3C)ccnc21` (racemic), the IC50 in series [1] was determined as 340 nM.

The compound `CCC(C1CC1)n1c(=O)c(C)nc2c(-c3cc(C)c(OC)cc3Cl)ccnc21` (racemic) yielded an IC50 in series [1] of 0.68 nM. The fraction unbound in series [2] was less than 0.002.

Consider `CCOc1cc(Cl)c(-c2ccnc3c2nc(C)c(=O)n3C(CC)C2CC2)cc1C` (racemic), for which the IC50 in series [1] worked out at 2 nM.

The compound `CCC(C1CC1)n1c(=O)c(C)nc2c(-c3cc(C)c(OC(C)C)cc3Cl)ccnc21` (racemic) showed an IC50 in series [1] of 15 nM.

`CCC(C1CC1)n1c(=O)c(C)nc2c(-c3cc(Cl)c(OC(F)F)cc3C)ccnc21` (racemic) showed an IC50 in series [1] of 9.7 nM. For the same compound, in series [2], the fraction unbound amounted to 0.003.

Take `CCC(C1CC1)n1c(=O)c(C)nc2c(-c3cc(F)c(OC)cc3F)ccnc21` (racemic): the IC50 in series [1] is 52 nM.

For the compound `CCC(C1CC1)n1c(=O)c(C)nc2c(-c3cc(F)c(N(C)C)cc3Cl)ccnc21` (racemic), half-maximal inhibition in series [1] (IC50) was put at 0.82 nM. For the same compound, the fraction unbound in series [2] is less than 0.002.

The compound `CCC(C1CC1)n1c(=O)c(C)nc2c(-c3cc(C)c(Cl)cc3OC)ccnc21` (racemic) showed an IC50 in series [1] of 1.1 nM.

On to `CCC(C1CC1)n1c(=O)c(C)nc2c(-c3cc(Cl)c(OC)cc3OC)ccnc21` (racemic), for which, in series [1], the half-inhibitory concentration (IC50) is 3.4 nM.
